According to patent US5045190A, “Chromatography apparatus” (priority 1990, dated 1991):

Columns and labels:
[1] = biological target: T1, horse serum cholinesterase (Equus caballus, UniProt P81908); test: Inhibition of horse (serum) cholinesterase, Ki by the method of Dixon; format: biochemical
T1 construct: purchased Sigma Chemicals Co; host or cells: horse serum
Source text: E. coli beta-galactosidase, chromatographically purified, was obtained from Worthington Biochemicals. P-aminophenyl-beta-D-thiogalactopyranoside (APGP) was purchased from Calbiochem. O-nitrophenyl-beta-D-galactopyranoside (ONPG), bovine trypsin (twice recrystallized), DL-benzoylarginine-p-nitroanilide (DL-BAPNA), p-aminobenzamidine (PAB), cholinesterase (affinity purified from horse serum), procainamide, dithiobisnitrobenzoate, and butyrylthiocholine were obtained from Sigma Chemicals Co. Tresyl chloride (2,2,2-trifluoroethanesulfonyl chloride) was obtained from Fluka and ethyl-(dimethyl-aminopropyl)carbodiimide (EDC) from Aldrich. The surfactant Sandopan JA36 was obtained from Sandoz Chemicals and the surfactant octaethylene glycol n-hexadecyl ether (C16 E8) was obtained from Nikkol Chemicals Co. (Japan). The structures of these surfactants is as shown below: [drawing 1]
The molar extinction coefficient of C16 E8 -pyridinium at 259 nm is […] (by dry weight). The product final yield is 71.9%.

[2] = reported pI; cited from earlier work
[3] = Stability of trypsin solution at 4 degrees Celsius (BAPNA activity assay); format: physicochemical; conditions: 2.9 mg/ml in Buffer A, over three days
Method: This example was conducted in accordance with Example 18 above. The activity of trypsin solutions were determined by a method similar to that described by Erlanger et al., Arch. Biochem. Biophys. 95, 271 (1961), using BAPNA as substrate. An aliquot (0.5 milliliter) of the trypsin solution to be assayed was diluted in 1.5 milliliters of 0.05 M Tris-HCl buffer, pH 8.15, containing 0.02 M CaCl2 in a 3.5 milliliter disposable polystyrene cuvette. A 100 microliter aliquot of a 10^-2 M solution of BAPNA in dimethylsulfoxide was then added to this solution. The rate of change in absorbance at 388 nm at 25 degrees Celsius was then measured in a Schimadzu UV 160 spectrophotometer. One unit of activity was defined as the amount of enzyme causing an absorbance change of 0.1 per minute under these conditions.
A solution of trypsin (2.9 milligrams of protein per milliliter) was prepared in Buffer A and several activity assays were made over the course of three days to determine its stability at 4 degrees Celsius. […] In this case the eluted peaks were collected and assayed for enzymatic activity.

T1 sequence (P81908 whole entry): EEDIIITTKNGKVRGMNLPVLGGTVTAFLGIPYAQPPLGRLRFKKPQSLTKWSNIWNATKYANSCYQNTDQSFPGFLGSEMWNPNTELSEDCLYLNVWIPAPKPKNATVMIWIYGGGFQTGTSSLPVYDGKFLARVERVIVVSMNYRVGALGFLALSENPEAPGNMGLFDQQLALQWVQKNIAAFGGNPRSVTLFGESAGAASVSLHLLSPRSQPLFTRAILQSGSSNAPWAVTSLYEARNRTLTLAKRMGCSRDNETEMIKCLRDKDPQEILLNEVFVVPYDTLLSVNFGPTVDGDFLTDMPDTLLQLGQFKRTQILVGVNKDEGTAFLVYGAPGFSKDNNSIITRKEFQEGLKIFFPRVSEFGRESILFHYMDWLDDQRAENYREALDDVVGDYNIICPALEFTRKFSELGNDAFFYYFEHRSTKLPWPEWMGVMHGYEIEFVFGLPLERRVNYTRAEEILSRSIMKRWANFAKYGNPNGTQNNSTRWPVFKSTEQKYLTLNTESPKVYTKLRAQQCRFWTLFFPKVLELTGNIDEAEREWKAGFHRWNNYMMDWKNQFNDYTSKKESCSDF

CCCCCCCCCCCCCCCCOCCOCCOCCOCCOCCOCCOCCOCC[n+]1ccccc1 [C16 E8 -pyridinium, N-(n-hexadecyloctaethoxy)pyridinium]
Ki ([1]; horse serum cholinesterase, method of Dixon, read-out: Ki toward horse serum cholinesterase): 514 nM
inhibition of the enzymatic activity of horse cholinesterase ([1]; surface active HPLC peak, retention time 127.5 minutes): significantly inhibits

CCCCCCCCCCCCCCCCOCCOCCOCCOCCOCCOCCOCCOCCO [Unmodified surfactant, octaethylene glycol n-hexadecyl ether, reference compound]
effect on the activity of horse cholinesterase ([1]; even at concentrations as high as 10^-3 M): does not have any effect

Lysozyme: test protein, isoelectric point (pI) of 11.0
isoelectric point (pI) [2]: 11.0

B1: trypsin: bovine trypsin (twice recrystallized) (protein, UniProt P00760 24-246, looked up)
Serine protease 1: IVGGYTCGANTVPYQVSLNSGYHFCGGSLINSQWVVSAAHCYKSGIQVRLGEDNINVVEGNEQFISASKSIVHPSYNSNTLNNDIMLIKLKSAASLNSRVASISLPTSCASAGTQCLISGWGNTKSSGTSYPDVLKCLKAPILSDSSCKSAYPGQITSNMFCAGYLEGGKDSCQGDSGGPVVCSGKLQGIVSWGSGCAQKNKPGVYTKVCNYVSWIKQTIASN
loss in tryptic activity (stability of solution) [3]: No significant loss in tryptic activity was observed
